From US20250066411A1, “GL[…] FOR L-SIGN” (priority 2022, published 2025) come the findings set out here.

What all share (assay type): binding
Assay [1] deals with T1, L-SIGN ECD (Homo sapiens, UniProt Q9H2X3).
T1 construct: towards the extra cellular domain (ECD) of the DC-SIGN and L-SIGN receptors
T1 sequence (Q9H2X3 71-399 limits assumed): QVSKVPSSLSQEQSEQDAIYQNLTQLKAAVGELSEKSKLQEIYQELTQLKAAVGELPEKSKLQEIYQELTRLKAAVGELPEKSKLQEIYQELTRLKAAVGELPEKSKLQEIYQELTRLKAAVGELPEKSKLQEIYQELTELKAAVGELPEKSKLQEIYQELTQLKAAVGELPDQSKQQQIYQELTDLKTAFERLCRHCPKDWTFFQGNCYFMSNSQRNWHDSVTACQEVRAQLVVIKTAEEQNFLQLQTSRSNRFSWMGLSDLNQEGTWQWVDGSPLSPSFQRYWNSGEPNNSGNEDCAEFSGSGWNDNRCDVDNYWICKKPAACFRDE
The assay can be described thus: SPR competition experiments on a sensorchip functionalized with SARS-CoV-2 Spike protein, L-SIGN ECD co-injected. The note with it: for IC50: 20 μM L-SIGN ECD co-injected, Spike HexaPro surface, 25° C., read-out: IC50 (inhibition of L-SIGN); for selectivity for L-SIGN over DC-SIGN: SPR competition, L-SIGN vs DC-SIGN ECD; for inhibits the L-SIGN receptor better than D-mannose: relative to D-mannose IC50.

Assay [2] has as its target T1, L-SIGN ECD. The assay can be described thus: Isothermal Titration Calorimetry (ITC) with L-SIGN ECD. As to the method: The interaction of compound 106a with the L-SIGN receptor was also confirmed by Isothermal Titration Calorimetry (ITC) experiments (FIG. 2).
These experiments were carried out on a MicroCal PEAQ-ITC apparatus, at 25° C., in buffer A (25 mM Tris pH 8, 150 mM NaCl, 4 mM CaCl2). L-SIGN ECD (172 μM) was titrated with consecutive 2 μL injections of a 2 mM solution of compound 106a in Calcium buffer (30 μL of 20 mM compound 106a+270 μL of Calcium buffer).
The analysis was performed in triplicate and the graphs shown in FIG. 2 (which report, respectively, Differential Power (DP) vs. time, and ΔH vs. molar ratio) are representative of the average of the three experiments.

Assay [3] has as its target T1, L-SIGN ECD. The assay can be described thus: SPR direct interaction experiments on oriented immobilized biotinylated ECD. The note with it: read-out: apparent Kd for L-SIGN; Steady State Affinity model, ligands 2 nM to 500 nM. As for the experimental part:
For this experiment the extracellular domain (ECD) of DC-SIGN and L-SIGN were immobilized onto the SPR surface in an oriented manner, by their N-terminus, taking advantage of biotine/streptavidin interaction. To generate DC/L SIGN specifically biotinylated at the N-terminus, 3 glycine residues at the N-terminus of the protein were added by site directed mutagenesis in order to allow a sortaging procedure. The biotinylated versions of DC/L-SIGN ECDs (Biot-ECDs) were prepared by sortaging as described in Achilli, S., Monteiro, J. T., Serna, S., Mayer-Lambertz, S., Thépaut, M., Le Roy, A., Ebel, C., Reichardt, N.-C., Lepenies, B., Fieschi, F., and Vives, C. (2020) […], Artificial Tetrameric Lectins: A Tool to Screen Ligand and Pathogen Interactions. IJMS 21, 1-19 using a commercial synthetic biotinylated peptide,
To generate the oriented SPR surfaces, the flow cells were functionalized with Streptavidin in 10 mM Acetate buffer pH 4 and the remaining activated groups were blocked with 1 M ethanolamine pH 8. After blocking, the flow cells were treated with 100 μL of 10 mM HCl to remove non-specifically bound proteins and 100 μL of 50 mM NaOH/1M NaCl to expose surface to regeneration protocol. Priming of the surface was done using the running buffer (25 mM Tris pH 8, 150 mM NaCl, 4 mM CaCl2), 0.05% Tween). […] Surfaces are ready for interaction. […]

Regarding `NCc1cn(C2C(OCCCl)OC(CO)C(O)C2O)nn1` (centres unmarked) [Compound 103, reference compound], on L-SIGN ECD [1], the IC50 was determined as 278 µM.
On L-SIGN ECD [2], `N=C(N)NCc1cn([C@H]2C(OCCCl)OC(CO)[C@@H](O)[C@@H]2O)nn1` (some centres unmarked) [Compound 106a] returned a Kd of 12.8 ± 1.5 µM. For the same compound, at L-SIGN ECD [2] (ITC), the “enthalpy contribution (ΔH) of the interaction” value is “very favorable”; the “stoichiometry of interaction between ligand and L-SIGN receptor” value is recorded as 1,13. Besides, on L-SIGN ECD [1], the 50% inhibitory concentration (IC50) is 24 µM, the “selectivity for L-SIGN over DC-SIGN” value is “up to 58 fold” and the “inhibits the L-SIGN receptor better than D-mannose” value was found to be 80 times. Further, the “inhibits the L-SIGN receptor better than compound 103” value on L-SIGN ECD [1] (relative to compound 103 IC50) was 11 times.
For the compound `OCC1O[C@H](OCCCl)C(n2cc(CNc3nc4ccccc4[nH]3)nn2)C(O)[C@@H]1O` (some centres unmarked) [Compound 113], at L-SIGN ECD [1], the 50% inhibitory concentration (IC50) was found to be 48 µM and the “selectivity for L-SIGN over DC-SIGN” value was “more selective against DC-SIGN”.
The corresponding values for `OCC1O[C@H](OCCCl)C(n2cc(CNc3ncc[nH]3)nn2)C(O)[C@@H]1O` (some centres unmarked) [Compound 115] are 15 µM and “up to 75 fold”.
In the case of `OCC1O[C@H](OCCCl)C(n2cc(CNc3ncc[nH]3)nn2)C(O)[C@@H]1O` (some centres unmarked) [Compound 119], at L-SIGN ECD [1], the half-inhibitory concentration (IC50) turned out to be 18 µM and the “inhibits the L-SIGN receptor better than D-mannose” value is listed as “over two orders of magnitude”.
On to `N=C(N)NCc1cn(C2C(OCCn3cc(-c4cc(OCCOCCO)c(C#Cc5cc(OCCOCCO)c(C#Cc6cc(OCCOCCO)c(-c7cn(CCOC8OC(CO)C(O)C(O)C8n8cc(CNC(=N)N)nn8)nn7)cc6OCCOCCO)cc5OCCOCCO)cc4OCCOCCO)nn3)OC(CO)C(O)C2O)nn1` (centres unmarked) [Compound 133], for which the Kd at L-SIGN ECD [3] was found to be 0.052 µM.
On the same count and under the same terms, next, `N=C(N)NCc1cn(C2C(OCCn3cc(COCCOCCOCCn4cc(-c5cc(OCCOCCO)c(C#Cc6cc(OCCOCCO)c(C#Cc7cc(OCCOCCO)c(-c8cn(CCOCCOCCOCc9cn(CCOC%10OC(CO)C(O)C(O)C%10n%10cc(CNC(=N)N)nn%10)nn9)nn8)cc7OCCOCCO)cc6OCCOCCO)cc5OCCOCCO)nn4)nn3)OC(CO)C(O)C2O)nn1` (centres unmarked) [Compound 135]: 0.025 µM.
In the case of `OCC1O[C@H](OCCCl)C(n2cc(CNC3=NCCCN3)nn2)C(O)[C@@H]1O` (some centres unmarked) [Compound 139], on L-SIGN ECD [1], the IC50 was found to be 12 µM and the “selectivity for L-SIGN over DC-SIGN” value is reported as “up to 94 fold”.
Regarding `COc1ccc2[nH]c(NCc3cn(C4C(O)[C@H](O)C(CO)O[C@@H]4OCCCl)nn3)nc2c1` (some centres unmarked) [Compound 146], on L-SIGN ECD [1], the IC50 was determined as 52 µM.
The same measure, in the same setting: the value for `O=C[C@@H](O)[C@@H](O)[C@H](O)[C@H](O)CO` [D-mannose, reference compound] was 1940 µM.
